Reference: paper PMC2633282, “A P2X receptor from the tardigrade species Hypsibius dujardini with fast kinetics and sensitivity to zinc and copper” (BMC Evolutionary Biology, 2009)

How the values were obtained:
Assay in all cases: two-electrode voltage clamp, Xenopus oocytes
Assay type in all cases: cell-based
[1] = target: T1, HdP2X (Hypsibius dujardini, UniProt B8RGS2)
T1 construct: full-length, 480 residues, cDNA clone in pSPORT1; cRNA in Xenopus oocytes; P2X receptors are trimers
T1 sequence (B8RGS2 1-480): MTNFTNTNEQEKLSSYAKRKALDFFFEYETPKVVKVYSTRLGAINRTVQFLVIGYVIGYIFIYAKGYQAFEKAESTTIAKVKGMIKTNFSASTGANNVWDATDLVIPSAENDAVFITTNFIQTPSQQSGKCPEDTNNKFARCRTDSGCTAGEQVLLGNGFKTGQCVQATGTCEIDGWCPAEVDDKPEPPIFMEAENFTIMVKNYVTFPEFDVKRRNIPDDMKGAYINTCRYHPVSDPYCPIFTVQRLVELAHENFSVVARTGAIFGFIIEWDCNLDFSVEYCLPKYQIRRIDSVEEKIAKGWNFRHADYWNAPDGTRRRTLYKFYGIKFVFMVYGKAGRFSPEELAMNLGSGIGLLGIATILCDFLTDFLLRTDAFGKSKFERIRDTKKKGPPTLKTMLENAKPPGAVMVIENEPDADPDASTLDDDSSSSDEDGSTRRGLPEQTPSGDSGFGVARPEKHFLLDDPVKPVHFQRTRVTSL

[2] = target: T1, HdP2X; remark: listed apart in the source
[3] = target: T1, HdP2X; conditions: agonist; -60 mV; ND96 with Ba2+ for Ca2+, pH 7.5

| EC50 [1] [µM] | IC50 [2] [µM] | SMILES | also measured |
| --- | --- | --- | --- |
| 12.2 | – | Nc1ncnc2c1ncn2[C@@H]1O[C@H](COP(=O)(O)OP(=O)(O)OP(=O)(O)O)[C@@H](OC(=O)c2ccc(C(=O)c3ccccc3)cc2)[C@H]1O [Bz-ATP, 2',3'-O-4-Benzoylbenzoyl ATP] | – |
| – | 15 | Cc1nc(N=Nc2ccc(S(=O)(=O)O)cc2S(=O)(=O)O)c(COP(=O)(O)O)c(C=O)c1O [PPADS, pyridoxal-phosphate-6-azophenyl-2',4'-disulfonic acid] | – |
| – | 22.6 | Cc1ccc(C(=O)Nc2ccc(S(=O)(=O)O)c3cc(S(=O)(=O)O)cc(S(=O)(=O)O)c23)cc1NC(=O)c1cccc(NC(=O)Nc2cccc(C(=O)Nc3cc(C(=O)Nc4ccc(S(=O)(=O)O)c5cc(S(=O)(=O)O)cc(S(=O)(=O)O)c45)ccc3C)c2)c1 [suramin] | – |
| 44.5 | – | Nc1ncnc2c1ncn2[C@@H]1O[C@H](COP(=O)(O)OP(=O)(O)OP(=O)(O)O)[C@@H](O)[C@H]1O [ATP] | – |
| – | – | Nc1ncnc2c1ncn2[C@@H]1O[C@H](COP(=O)(O)CP(=O)(O)OP(=O)(O)O)[C@@H](O)[C@H]1O [αβ-methylene ATP, α,β-methylene-adenosine 5'-triphosphate] | % of 100 μM ATP response at 100 μM [3]: < 50% |
